The values that follow come from patent US11903962B1, “Isoxazoline complexes and compositions thereof” (priority 2023, dated 2024).

Series [1] can be described thus: Water solubility of cyclodextrin complexes with or without polysorbate 80 / polypowder. Format: physicochemical. The settings on record: aqueous with cosolvent or surfactant or cyclodextrin, complexed with hpbcd, read-out: solubility when complexed with hpbcd.
The conditions of series [2]: room temperature, various compositions; cited from earlier work.

The structures appear in SMILES notation.

As for `O=C(NN1C(=O)[C@@H]2[C@@H]3C=C[C@@H]([C@H]4C[C@@H]34)[C@@H]2C1=O)c1ccc(C(F)(F)F)cc1` [tecovirimat], the solubility – broadly, how much of the substance goes into solution per volume – in series [1] was above 10000 µg/mL. For `Cc1cc(C2=NOC(c3cc(Cl)cc(Cl)c3)(C(F)(F)F)C2)ccc1C(=O)NCC(=O)NCC(F)(F)F` (centres unmarked) [Fluralaner, 4-[5-(3,5-dichlorophenyl)-5-trifluoromethyl-4,5-dihydroisoxazol-3-yl]-2-methyl-N-[(2,2,2-trifluoro-ethylcarbamoyl)-methyl]-benzamide], the degradation by water in series [2] was at most 48 h.
